Consider 32 compounds from patent US20200048259A1, “KDM5 INHIBITORS” (priority 2016, published 2020).

For one assay, the target named is T1, Full-length KDM5B enzyme (Homo sapiens, UniProt Q9UGL1).
T1 construct: recombinant protein from baculovirus-transfected Sf21 cells: full-length KDM5B; MW=176.825 kDa; host or cells: baculovirus-transfected Sf21 insect cells
T1 sequence (Q9UGL1 whole entry): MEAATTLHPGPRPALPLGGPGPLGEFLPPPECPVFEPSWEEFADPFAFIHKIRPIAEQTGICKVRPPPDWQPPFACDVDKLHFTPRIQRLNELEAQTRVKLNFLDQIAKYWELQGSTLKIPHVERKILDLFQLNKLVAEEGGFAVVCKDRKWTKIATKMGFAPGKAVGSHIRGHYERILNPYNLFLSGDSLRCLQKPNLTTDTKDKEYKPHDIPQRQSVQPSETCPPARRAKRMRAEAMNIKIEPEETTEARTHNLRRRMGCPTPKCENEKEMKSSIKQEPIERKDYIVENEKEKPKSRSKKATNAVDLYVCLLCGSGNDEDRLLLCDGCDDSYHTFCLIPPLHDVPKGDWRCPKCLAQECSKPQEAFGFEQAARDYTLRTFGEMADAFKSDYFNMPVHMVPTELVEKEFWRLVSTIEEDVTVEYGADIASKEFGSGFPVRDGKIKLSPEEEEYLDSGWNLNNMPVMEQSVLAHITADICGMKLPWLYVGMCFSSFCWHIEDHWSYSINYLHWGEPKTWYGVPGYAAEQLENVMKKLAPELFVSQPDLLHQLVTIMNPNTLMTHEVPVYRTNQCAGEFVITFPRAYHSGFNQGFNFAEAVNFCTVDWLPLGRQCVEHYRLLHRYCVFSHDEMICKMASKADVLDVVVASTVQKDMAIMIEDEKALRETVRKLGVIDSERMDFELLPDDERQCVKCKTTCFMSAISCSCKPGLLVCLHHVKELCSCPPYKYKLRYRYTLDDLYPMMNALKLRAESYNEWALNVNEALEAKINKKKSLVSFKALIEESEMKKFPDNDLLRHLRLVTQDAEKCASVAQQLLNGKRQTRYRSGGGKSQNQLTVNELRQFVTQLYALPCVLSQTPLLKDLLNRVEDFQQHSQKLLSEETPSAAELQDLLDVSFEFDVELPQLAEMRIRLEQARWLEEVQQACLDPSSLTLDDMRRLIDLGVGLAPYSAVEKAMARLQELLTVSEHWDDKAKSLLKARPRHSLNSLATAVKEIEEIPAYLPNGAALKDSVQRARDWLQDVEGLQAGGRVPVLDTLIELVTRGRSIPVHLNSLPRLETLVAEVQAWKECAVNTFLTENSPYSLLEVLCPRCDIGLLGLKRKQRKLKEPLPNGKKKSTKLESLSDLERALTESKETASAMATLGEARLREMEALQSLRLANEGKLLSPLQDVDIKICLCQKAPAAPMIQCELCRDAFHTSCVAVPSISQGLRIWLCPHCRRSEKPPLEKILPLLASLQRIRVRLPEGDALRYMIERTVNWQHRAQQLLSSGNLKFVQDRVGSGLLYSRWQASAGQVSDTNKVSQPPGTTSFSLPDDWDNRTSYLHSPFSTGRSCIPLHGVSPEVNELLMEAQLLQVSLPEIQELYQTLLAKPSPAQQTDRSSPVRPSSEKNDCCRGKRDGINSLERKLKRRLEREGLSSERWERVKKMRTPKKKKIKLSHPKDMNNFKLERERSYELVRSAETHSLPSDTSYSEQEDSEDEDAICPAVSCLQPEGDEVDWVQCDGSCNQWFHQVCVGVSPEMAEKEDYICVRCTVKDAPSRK
The assay can be described thus: KDM5B TR-FRET Enzyme Activity Assay (LANCE). The assay is classed as biochemical.
Details: not given
Here is the method: KDM5B TR-FRET Enzyme Activity Assay
KDM5B enzymatic activity was determined with the LANCE (Lanthanide Chelate Excite) TR-FRET (Time-resolved fluorescence resonance energy transfer) assay. […] Following a 30 minutes compound and enzyme incubation in a humidified chamber, each reaction was initiated by the addition of 1 μL 1× assay buffer containing […] biotinylated H3K4Me3 peptide, and 500 nM α-ketoglutarate. The final reaction in each well of 5 μL consists of 5 nM KDM5B, 500 nM biotinylated-peptide, and 500 nM α-ketoglutarate. De-methylation reactions were allowed to proceed for 60 minutes. Reactions were immediately quenched by the addition of 5 μL of 2× Lance Detection Buffer (PerkinElmer) with 0.5 mM EDTA and 2 nM of Eu-anti-H3K4Mel-2 antibody, and 30 nM of Streptavidin-conjugated Dylight 650 detection reagents. After 60 minutes incubation with detection reagents, reaction plates were read on a PerkinElmer EnVision plate reader using standard TR-FRET protocol. Briefly, excitation of donor molecules (Eu-chelate-anti-H3K4Me1-2-antibody) with a laser light source at 337 nm produces energy that can be transferred to Dylight-650 acceptor molecules if this donor:acceptor pair is within close proximity.
Fluorescence intensity at both 665 nm (acceptor) and 615 nm (donor) are measured and a TR-FRET ratio calculated for each well (acceptor intensity/donor intensity). IC50 values were determined by 4 parameter robust fit of TR-FRET ratio values vs. (Log 10) compound concentrations.
(In TR-FRET formats the signal depends on donor and acceptor labels being close together.)
One may read the IC50 as the point on the concentration scale where inhibition reaches its midpoint. `Cc1nc2[nH]c(C3CCOCC3)cc(=O)n2n1` [Example 7-58, 2-methyl-5-(tetrahydro-2H-pyran-4-yl)[1,2,4]triazolo[1,5-a]pyrimidin-7(4H)-one]: the IC50 was more than 100 µM.

`Cc1nc2[nH]c(C)c(Cc3ccccc3)c(=O)n2n1` [Example 7-4, 6-benzyl-2,5-dimethyl[1,2,4]triazolo[1,5-a]pyrimidin-7(4H)-one]: the IC50 was more than 100 µM.

In turn, `CCCCc1c(C)[nH]c2nc(C)nn2c1=O` [Example 7-8, 6-butyl-2,5-dimethyl[1,2,4]triazolo[1,5-a]pyrimidin-7(4H)-one] came in with an IC50 of more than 100 µM.

On to `Cc1nc2[nH]c(-c3ccccc3)cc(=O)n2n1` [Example 7-69, 2-methyl-5-phenyl-[1,2,4]triazolo[1,5-a]pyrimidin-7(4H)-one], for which inhibition was half-maximal at 7.64 µM (IC50).

For the compound `Cc1[nH]c2nc(-c3ccco3)nn2c(=O)c1C(C)C` [Example 7-27, 2-furan-2-yl-5-methyl-6-(1-methylethyl)[1,2,4]triazolo[1,5-a]pyrimidin-7(4H)-one], the half-inhibitory concentration (IC50) is more than 100 µM.

In the case of `Cc1nc2[nH]c(-c3ccccc3Cl)cc(=O)n2n1` [Example 7-52, 5-(2-chlorophenyl)-2-methyl[1,2,4]triazolo[1,5-a]pyrimidin-7(4H)-one], the half-inhibitory concentration (IC50) is more than 100 µM.

`Cc1[nH]c2nc(C3CC(F)(F)C3)nn2c(=O)c1C(C)C` [Example 7-23, 2-(3,3-difluorocyclobutyl)-5-methyl-6-(1-methylethyl)[1,2,4]triazolo[1,5-a]pyrimidin-7(4H)-one] gave a half-maximal inhibitory concentration (IC50) of more than 100 µM.

Compound `Cc1nc2[nH]c(CC3CC3)cc(=O)n2n1` [Example 7-63, 5-(cyclopropylmethyl)-2-methyl[1,2,4]triazolo[1,5-a]pyrimidin-7(4H)-one] displayed an IC50 of more than 100 µM.

With `Cc1nc2[nH]c(C(F)(F)C(F)(F)F)cc(=O)n2n1` [Example 7-41, 2-methyl-5-(pentafluoroethyl)[1,2,4]triazolo[1,5-a]pyrimidin-7(4H)-one], the half-inhibitory concentration (IC50) was more than 100 µM.

Still in this assay, the particulars now being: 5 nM full-length KDM5B, biotinylated H3K4Me3 peptide, 500 nM α-ketoglutarate; ten point titration 100000 nM to 5.08 nM; read-out: IC50.
On to `Cc1[nH]c2nc(Cl)nn2c(=O)c1C(C)C` [Example 7-34, 2-chloro-5-methyl-6-(1-methylethyl)[1,2,4]triazolo[1,5-a]pyrimidin-7(4H)-one], for which the half-inhibitory concentration (IC50) worked out at 1.25 µM.

For the compound `Cc1nc2[nH]c(C(F)(F)F)c(C)c(=O)n2n1` [Example 7-48, 2,6-dimethyl-5-(trifluoromethyl)[1,2,4]triazolo[1,5-a]pyrimidin-7(4H)-one], the IC50 was found to be 29.6 µM.

On to `CCc1c(C)[nH]c2nc(C(F)(F)F)nn2c1=O` [Example 7-9, 6-ethyl-5-methyl-2-(trifluoromethyl)[1,2,4]triazolo[1,5-a]pyrimidin-7(4H)-one], for which the concentration for half-maximal inhibition (IC50) worked out at 9.09 µM.

Turning to `COC(=O)Cc1c(C)[nH]c2nc(C(=O)OC)nn2c1=O` [Example 7-15, methyl 6-(2-methoxy-2-oxoethyl)-5-methyl-7-oxo-4,7-dihydro[1,2,4]triazolo[1,5-a]pyrimidine-2-carboxylate], the half-maximal inhibitory concentration (IC50) is 68.1 µM.

`Cc1nc2[nH]c(C)c(C(C)C)c(=O)n2n1` [Example 7-21, 2,5-dimethyl-6-(1-methylethyl)[1,2,4]triazolo[1,5-a]pyrimidin-7(4H)-one]: the IC50 was 7.99 µM.

Regarding `Cc1nc2[nH]c(C3CC3)c(C)c(=O)n2n1` [Example 7-64, 5-cyclopropyl-2,6-dimethyl[1,2,4]triazolo[1,5-a]pyrimidin-7(4H)-one], the half-maximal inhibitory concentration (IC50) was determined as 44.2 µM.

On to `Cc1[nH]c2nc(Br)nn2c(=O)c1C(C)C` [Example 7-35, 2-bromo-5-methyl-6-(1-methylethyl)[1,2,4]triazolo[1,5-a]pyrimidin-7(4H)-one], for which the IC50 came to 1.92 µM.

For the compound `CCc1cc(=O)n2nc(C)nc2[nH]1` [Example 7-12, 5-ethyl-2-methyl-[1,2,4]triazolo[1,5-a]pyrimidin-7(4H)-one], the IC50 stood at 73.7 µM.

In the case of `Cc1nc2[nH]c(C)c(Cl)c(=O)n2n1` [Example 7-31, 6-chloro-2,5-dimethyl[1,2,4]triazolo[1,5-a]pyrimidin-7(4H)-one], the half-maximal inhibitory concentration (IC50) worked out at 39.2 µM.

On to `CCc1c(-c2ccn(C)n2)[nH]c2nc(C)nn2c1=O` [Example 7-33, 6-ethyl-2-methyl-5-(1-methyl-1H-pyrazol-3-yl)[1,2,4]triazolo[1,5-a]pyrimidin-7(4H)-one], for which the IC50 is 4.24 µM.

In the case of `CCc1c(C)[nH]c2nc(C)nn2c1=O` [Example 7-5, 6-ethyl-2,5-dimethyl-[1,2,4]triazolo[1,5-a]pyrimidin-7(4H)-one], the IC50 came out at 27.8 µM.

In the case of `Cc1[nH]c2nc(N)nn2c(=O)c1C(C)C` [Example 7-16, 2-amino-5-methyl-6-(1-methylethyl)[1,2,4]triazolo[1,5-a]pyrimidin-7(4H)-one], the concentration for half-maximal inhibition (IC50) came out at 3.41 µM.

Take `Cc1nc2[nH]c(-c3ccoc3)cc(=O)n2n1` [Example 7-40, 5-furan-3-yl-2-methyl[1,2,4]triazolo[1,5-a]pyrimidin-7(4H)-one]: the IC50 came to 36.7 µM.

On to `Cc1[nH]c2nc(-c3ccccc3Cl)nn2c(=O)c1C(C)C` [Example 7-26, 2-(2-chlorophenyl)-5-methyl-6-(1-methylethyl)[1,2,4]triazolo[1,5-a]pyrimidin-7(4H)-one], for which the concentration for half-maximal inhibition (IC50) was 95.8 µM.

`Cc1nc2[nH]c(-c3ccc(F)cc3)cc(=O)n2n1` [Example 7-39, 5-(4-fluorophenyl)-2-methyl[1,2,4]triazolo[1,5-a]pyrimidin-7(4H)-one]: the IC50 is 8.07 µM.

As for `Cc1nc2[nH]c(C)c(C)c(=O)n2n1` [Example 7-7, 2,5,6-trimethyl[1,2,4]triazolo[1,5-a]pyrimidin-7(4H)-one], the IC50 worked out at 32 µM.

As for `CCc1c(C(F)(F)F)[nH]c2nc(C)nn2c1=O` [Example 7-60, 6-ethyl-2-methyl-5-(trifluoromethyl)[1,2,4]triazolo[1,5-a]pyrimidin-7(4H)-one], the half-inhibitory concentration (IC50) was 6.38 µM.

With `CCc1c(-c2ccccc2)[nH]c2nc(C)nn2c1=O` [Example 7-20, 6-ethyl-2-methyl-5-phenyl[1,2,4]triazolo[1,5-a]pyrimidin-7(4H)-one], the concentration for half-maximal inhibition (IC50) amounted to 3.97 µM.

On to `Cc1nc2[nH]c(C3CCCC3)c(C)c(=O)n2n1` [Example 7-66, 5-cyclopentyl-2,6-dimethyl[1,2,4]triazolo[1,5-a]pyrimidin-7(4H)-one], for which the IC50 worked out at 27.8 µM.

Consider `Cc1[nH]c2nc(-c3ccc(C(F)(F)F)cc3)nn2c(=O)c1C(C)C` [Example 7-25, 5-methyl-6-(1-methylethyl)-2-[4-(trifluoromethyl)phenyl][1,2,4]triazolo[1,5-a]pyrimidin-7(4H)-one], for which the IC50 was found to be 67.6 µM.

As for `Cc1[nH]c2nc(-c3ccc(F)cc3)nn2c(=O)c1C(C)C` [Example 7-24, 2-(4-fluorophenyl)-5-methyl-6-(1-methylethyl)[1,2,4]triazolo[1,5-a]pyrimidin-7(4H)-one], the IC50 is 33.7 µM.

For the compound `Cc1nc2[nH]c(-c3ccccc3F)cc(=O)n2n1` [Example 7-53, 5-(2-fluorophenyl)-2-methyl[1,2,4]triazolo[1,5-a]pyrimidin-7(4H)-one], the IC50 amounted to 37.5 µM.

Consider `Cc1nc2[nH]c(Cc3ccccc3)cc(=O)n2n1` [Example 7-55, 5-benzyl-2-methyl[1,2,4]triazolo[1,5-a]pyrimidin-7(4H)-one], for which the IC50 came out at 98.4 µM.
